Molecular target: S-adenosylmethionine synthase isoform type-2 (Homo sapiens, UniProt P31153)
Assay: In Vitro Enzymatic Inhibition Activity Assay
Procedure: Enzymatic activity assays of compounds of this patent against MAT2A (to detect half inhibitory concentration IC50 values of the compounds) were performed using the phosphate detection kit PiColorLockTM (ab270004, purchased from Abcam). This method utilized the principle that purified human MAT2A enzyme catalyzes the formation of S-adenosylmethionine (SAM) from L-methionine and ATP to release free phosphate, and used the spectrophotometric method to quantify phosphate, so as to determine the enzymatic activity of MAT2A. Compounds were diluted in a 10-fold gradient starting at 1 mM with 100% DMSO (for a total of 8 concentrations) and 2 μL of each concentration was added to 48 μL of reaction buffer (50 mM Tris-HCl PH 7.5, 50 mM KCl, 10 mM MgCl2, 0.01% Brij-35, 0.01% BSA, 1 mM DTT) and mixed well. The final diluted compound was prepared, and 5 μL of MAT2A enzyme (final concentration of 10 nM), 5 μL of ATP (final concentration of 50 μM), and 5 μL of L-methionine (final concentration of 100 μM) were added to each well of a 384-well plate (#3701, purchased from CORNING). After the 384-well plate was placed in the incubator at 23° C. for 6 h, 5 μL of PiColorLock reagent diluted Accelerator (dilution ratio 1:100) was added to each well, and the reaction was stopped by incubating in the incubator at 23° C. for 5 min. 2 μL of Stabiliser was added, the absorbance was read at 630 nm on BMG CLARIOstar, and the IC50 value of the compound was calculated by using GraphPad Prism software.

Sequence of S-adenosylmethionine synthase isoform type-2 (P31153 whole entry, canonical isoform): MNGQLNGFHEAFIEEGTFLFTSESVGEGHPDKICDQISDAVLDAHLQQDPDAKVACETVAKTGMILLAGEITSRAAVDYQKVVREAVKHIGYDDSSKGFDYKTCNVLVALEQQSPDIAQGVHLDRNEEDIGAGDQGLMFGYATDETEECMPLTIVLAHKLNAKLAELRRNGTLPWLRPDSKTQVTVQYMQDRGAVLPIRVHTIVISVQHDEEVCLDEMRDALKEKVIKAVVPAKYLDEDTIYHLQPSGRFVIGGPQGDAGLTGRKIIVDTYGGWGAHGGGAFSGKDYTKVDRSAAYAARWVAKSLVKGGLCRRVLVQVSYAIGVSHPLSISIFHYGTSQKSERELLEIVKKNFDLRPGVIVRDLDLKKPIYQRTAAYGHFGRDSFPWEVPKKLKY

SMILES | IC50 [nM]
COC(=O)c1c(N)c2ccc(OC(F)F)cc2n(-c2ccc(N)cc2)c1=O [US20250221979, Example 320] | 1.19
COC(=O)c1c(N)c2ncc(C3CC3)nc2n(-c2ccc(C(C)O)cc2)c1=O (stereo not drawn) [US20250221979, Example 356] | 1.19
COC(=O)c1c(N)c2ccc(OC(F)F)nc2n(-c2ccc([C@@H](C)O)cc2)c1=O [US20250221979, Example 372] | 1.96

Reference: BindingDB's records for patent US20250221979 (Shouyao Holdings (Beijing) Co., 2025)
